# Patent US8569039B2, “Ethanol resistance Saccharomyces cerevisiae GP-01 by protoplast fusion, method for manufacturing thereof, method for manufacturing yeast containing high content of bio organic germanium by using Saccharomyces cerevisiae GP-01 and high water soluble sodium metagermanate as a germanium source” (Geranti Pharm Ltd., priority 2008, dated 2013)
# Like-named read-outs stand apart in the source and are kept apart here.
# How the values were obtained:
# [1] = tested on: Saccharomyces Cerevisiae (KCTC 7904); conditions: KCTC7904
# Procedure: (§1) In order to examine the ethanol resistance of the obtained yeast GP-01, the ethanol, which is the inhibitor of the growth, was added by the concentrations and the status of the growth of the yeast was checked.
# [2] = tested on: yeast GP-01 (KCTC 11399BP)
# Procedure: as §1
# [3] = tested on: Saccharomyces Cerevisiae (KCTC 7904); assay: Bio-germanium content inoculated into the yeast by content of germanium in the solution; assay type: cell-based; conditions: KCTC7904; for Bio-germanium content inoculated into the yeast: 20 hours, pH 10, 40° C.
# [4] = tested on: yeast GP-01 (KCTC11399BP); assay: as above; assay type: cell-based, Saccharomyces Cerevisiae; conditions: for Bio-germanium content inoculated into the yeast: 20 hours, pH 10, 40° C.
# Procedure: The broth medium containing the mutated Saccharomyces Cerevisiae, yeast GP-01 (KCTC11399BP), was centrifuged to collect the palletized yeast. The collected pelletized yeast was added in each of the solutions of sodium metagermanate (Na2GeO3) with different concentrations of germanium. The prepared solutions were cultivated for 20 hours at pH 10 and temperature 40° C.
# In order to determine the content of bio-germanium in the yeast GP-01, 1 g of the cultivated and dried yeast GP-01 was added in 30 ml of nitric acid. The obtained sample was heated to be decomposed. After adjusting pH value to 6, 1 ml of the sample was mixed with 1 ml of phenylfluorone and 1 ml of cyclo nucleic acid. The obtained sample was stationary for 30 hours at 30° C. and then determined the content of germanium in the yeast GP-01 by using UV spectrophotometer at 525 nm. […]
# [5] = tested on: yeast GP-01 (KCTC 11399BP); assay: Bio-germanium content in yeast by mixing ratio of yeast and Ge solution; assay type: cell-based, Saccharomyces Cerevisiae; conditions: for Bio-germanium content in yeast GP-01: 20 hours, pH 10, 40° C.
# Procedure: (§2) In order to determine the content of bio-germanium in the yeast GP-01, 1 g of the cultivated and dried yeast GP-01 was added in 30 ml of nitric acid. The obtained sample was heated to be decomposed. After adjusting pH value to 6, 1 ml of the sample was mixed with 1 ml of phenylfluorone and 1 ml of cyclo nucleic acid. The obtained sample was stationary for 30 hours at 30° C. and then determined the content of germanium in the yeast GP-01 by using UV spectrophotometer at 525 nm.
# The broth containing the ethanol-resistant yeast GP-01 as prepared in the Example 1 was centrifuged to collect the yeast. […] The obtained solutions were cultivated for 20 hours at pH 10 and temperature 40° C.
# Also, as a control, the same procedure described in Example 3 was performed, except that a solution of (inorganic) germanium dioxide (GeO2) was used instead of sodium metagermanate (Na2GeO3).
# The contents of germanium in the yeast GP-01 (KCTC 11399BP) was measured by the same method as Example 2.
# [6] = 25° C.; cited from earlier work
# [7] = Solubility of the germanium source; assay type: physicochemical; conditions: 25° C.
# Procedure: The solution of Sodium Metagermanate (Na2GeO3) was prepared by dissolving sodium carbonate (Na2CO3, Kanto, Japan) in water, adding germanium dioxide (GeO2, PPM GmbH, Germany) at the equivalent ratio of 1:1 against the said sodium carbonate, and sterilized the obtained solution.
# [8] = tested on: yeast GP-01 (KCTC11399BP); assay: Germanium inoculated into the yeast by pH, temperature and surfactant concentration; assay type: cell-based, Saccharomyces Cerevisiae; conditions: 5,000 ppm germanium, ratio 1:0.5, 20 hours
# Procedure: as §2
# The broth containing the ethanol-resistant yeast GP-01 as prepared in the Example 1 was centrifuged to collect the yeast. At the ratio of 1:0.5, the collected yeast was added in the solution of sodium metagermanate (Na2GeO3) having 5,000 ppm of germanium. After adding surfactant (Twin-80), the obtained solution was cultivated for 20 hours by various conditions for pH, temperature or the broth containing germanium.
# The pH was regulated by using 1N NaOH, and a number of tests were repeatedly performed under different temperatures and concentrations of surfactant.
# When measuring the content of germanium, the broth without adding the surfactant was used as a control.
# The measurement of content of bio-germanium in the yeast GP-01 (KCTC11399BP) of the present invention was made by the same method as Example 2.
# [9] = germanium in the solution 1,000 ppm
# [10] = germanium in the solution 2,000 ppm
# [11] = germanium in the solution 3,000 ppm
# [12] = germanium in the solution 4,000 ppm
# [13] = germanium in the solution 5,000 ppm
# [14] = mixing ratio yeast GP-01:Ge solution 1:0.2
# [15] = mixing ratio yeast GP-01:Ge solution 1:0.5
# [16] = mixing ratio yeast GP-01:Ge solution 1:1
# [17] = mixing ratio yeast GP-01:Ge solution 1:2
# [18] = mixing ratio yeast GP-01:Ge solution 1:3
# [19] = germanium in the solution 10,000 ppm
# [20] = germanium in the solution 15,000 ppm
compound,measurement,setting,value
CCO [ethanol],"Growth status OD(660 nm, 1/20)",[1]; ethanol 6.0 % v/v,0.07
same,"Growth status OD(660 nm, 1/20)",[1]; ethanol 8.0 % v/v,0.06
same,"Growth status OD(660 nm, 1/20)",[1]; ethanol 10.0 % v/v,0.05
same,"Growth status OD(660 nm, 1/20)","[2]; GP-01 1st investigation, ethanol 6.0 % v/v",0.15
same,"Growth status OD(660 nm, 1/20)","[2]; GP-01 1st investigation, ethanol 8.0 % v/v",0.14
same,"Growth status OD(660 nm, 1/20)","[2]; GP-01 1st investigation, ethanol 10.0 % v/v",0.16
same,"Growth status OD(660 nm, 1/20)","[2]; GP-01 1st investigation, ethanol 15.0 % v/v",0.12
same,"Growth status OD(660 nm, 1/20)","[2]; GP-01 2nd investigation, ethanol 6.0 % v/v",0.14
same,"Growth status OD(660 nm, 1/20)","[2]; GP-01 2nd investigation, ethanol 8.0 % v/v",0.20
same,"Growth status OD(660 nm, 1/20)","[2]; GP-01 2nd investigation, ethanol 10.0 % v/v",0.19
same,"Growth status OD(660 nm, 1/20)","[2]; GP-01 2nd investigation, ethanol 15.0 % v/v",0.08
same,"Growth status OD(660 nm, 1/20)","[2]; GP-01 3rd investigation, ethanol 6.0 % v/v",0.20
same,"Growth status OD(660 nm, 1/20)","[2]; GP-01 3rd investigation, ethanol 8.0 % v/v",0.23
same,"Growth status OD(660 nm, 1/20)","[2]; GP-01 3rd investigation, ethanol 10.0 % v/v",0.24
same,"Growth status OD(660 nm, 1/20)","[2]; GP-01 3rd investigation, ethanol 15.0 % v/v",0.15
"germanium dioxide [GeO2 solution, reference compound]",Yield (%) of germanium inoculated,[3]; [9],78%
same,Bio-germanium content inoculated into the yeast,[3]; [9],780 ppm
same,Yield (%) of germanium inoculated,[3]; [10],44%
same,Bio-germanium content inoculated into the yeast,[3]; [10],870 ppm
same,Yield (%) of germanium inoculated,[3]; [11],33%
same,Bio-germanium content inoculated into the yeast,[3]; [11],980 ppm
same,Yield (%) of germanium inoculated,[3]; [12],36%
same,Bio-germanium content inoculated into the yeast,[3]; [12],"1,430 ppm"
same,Yield (%) of germanium inoculated,[3]; [13],30%
same,Bio-germanium content inoculated into the yeast,[3]; [13],"1,500 ppm"
same,Yield (%) of germanium inoculated,[4]; [9],87%
same,Bio-germanium content inoculated into the yeast,[4]; [9],870 ppm
same,Yield (%) of germanium inoculated,[4]; [10],89%
same,Bio-germanium content inoculated into the yeast,[4]; [10],"1,786 ppm"
same,Yield (%) of germanium inoculated,[4]; [11],89%
same,Bio-germanium content inoculated into the yeast,[4]; [11],"2,670 ppm"
same,Yield (%) of germanium inoculated,[4]; [12],96%
same,Bio-germanium content inoculated into the yeast,[4]; [12],"3,850 ppm"
same,Yield (%) of germanium inoculated,[4]; [13],95%
same,Bio-germanium content inoculated into the yeast,[4]; [13],"4,753 ppm"
same,Bio-germanium content in yeast GP-01,[5]; [14],"1,920 ppm"
same,Bio-germanium content in yeast GP-01,[5]; [15],"5,670 ppm"
same,Bio-germanium content in yeast GP-01,[5]; [16],"4,780 ppm"
same,Bio-germanium content in yeast GP-01,[5]; [17],"2,500 ppm"
same,Bio-germanium content in yeast GP-01,[5]; [18],"1,700 ppm"
same,solubility,[6],5.2 mg/mL
"[Na+].[Na+].[O]=[Ge]([O-])[O-] [Na2GeO3 solution, sodium metagermanate]",solubility,[7],500 mg/mL
same,Yield (%) of germanium inoculated,[3]; [11],32%
same,Bio-germanium content inoculated into the yeast,[3]; [11],950 ppm
same,Yield (%) of germanium inoculated,[3]; [12],38%
same,Bio-germanium content inoculated into the yeast,[3]; [12],"1,500 ppm"
same,Yield (%) of germanium inoculated,[3]; [13],47%
same,Bio-germanium content inoculated into the yeast,[3]; [13],"2,370 ppm"
same,Yield (%) of germanium inoculated,[3]; [19],45%
same,Bio-germanium content inoculated into the yeast,[3]; [19],"4,500 ppm"
same,Yield (%) of germanium inoculated,[3]; [20],38%
same,Bio-germanium content inoculated into the yeast,[3]; [20],"5,730 ppm"
same,Yield (%) of germanium inoculated,[4]; [11],155%
same,Bio-germanium content inoculated into the yeast,[4]; [11],"4,640 ppm"
same,Yield (%) of germanium inoculated,[4]; [12],171%
same,Bio-germanium content inoculated into the yeast,[4]; [12],"6,840 ppm"
same,Yield (%) of germanium inoculated,[4]; [13],194%
same,Bio-germanium content inoculated into the yeast,[4]; [13],"9,700 ppm"
same,Yield (%) of germanium inoculated,[4]; [19],130%
same,Bio-germanium content inoculated into the yeast,[4]; [19],"13,000 ppm"
same,Yield (%) of germanium inoculated,[4]; [20],110%
same,Bio-germanium content inoculated into the yeast,[4]; [20],"16,500 ppm"
same,increase of content of bio-germanium versus germanium dioxide,"[5]; Na2GeO3 solution compared with germanium dioxide, Table 3",2-4 times
same,Bio-germanium content in yeast GP-01,[5]; [14],"4,350 ppm"
same,Bio-germanium content in yeast GP-01,[5]; [15],"14,800 ppm"
same,Bio-germanium content in yeast GP-01,[5]; [16],"12,600 ppm"
same,Bio-germanium content in yeast GP-01,[5]; [17],"9,760 ppm"
same,Bio-germanium content in yeast GP-01,[5]; [18],"8,720 ppm"
same,Bio-germanium inoculated,[8]; Control: broth without adding the surfactant,"1,720 ppm"
same,Bio-germanium inoculated,[8]; pH 4.0,"2,190 ppm"
same,Bio-germanium inoculated,[8]; pH 5.0,"3,254 ppm"
same,Bio-germanium inoculated,[8]; pH 6.0,"5,320 ppm"
same,Bio-germanium inoculated,[8]; pH 6.5,"5,790 ppm"
same,Bio-germanium inoculated,[8]; pH 7.0,"9,750 ppm"
same,Bio-germanium inoculated,[8]; pH 8.0,"10,700 ppm"
same,Bio-germanium inoculated,[8]; pH 9.0,"15,200 ppm"
same,Bio-germanium inoculated,[8]; pH 10.0,"16,300 ppm"
same,Bio-germanium inoculated,[8]; pH 11.0,"9,320 ppm"
same,Bio-germanium inoculated,[8]; surfactant Twin-80 0.1 wt %,"8,743 ppm"
same,Bio-germanium inoculated,[8]; surfactant Twin-80 0.2 wt %,"16,250 ppm"
same,Bio-germanium inoculated,[8]; surfactant Twin-80 0.3 wt %,"12,530 ppm"
same,Bio-germanium inoculated,[8]; surfactant Twin-80 0.4 wt %,"9,670 ppm"
same,Bio-germanium inoculated,[8]; surfactant Twin-80 0.5 wt %,"7,624 ppm"
same,Bio-germanium inoculated,[8]; surfactant Twin-80 0.6 wt %,"5,670 ppm"
same,Bio-germanium inoculated,[8]; surfactant Twin-80 0.7 wt %,"4,830 ppm"
same,Bio-germanium inoculated,[8]; surfactant Twin-80 0.8 wt %,"2,700 ppm"
same,Bio-germanium inoculated,[8]; temperature 20 ° C.,"3,102 ppm"
same,Bio-germanium inoculated,[8]; temperature 30 ° C.,"9,648 ppm"
same,Bio-germanium inoculated,[8]; temperature 35 ° C.,"13,250 ppm"
same,Bio-germanium inoculated,[8]; temperature 40 ° C.,"14,700 ppm"
same,Bio-germanium inoculated,[8]; temperature 45 ° C.,"8,350 ppm"
same,Bio-germanium inoculated,[8]; temperature 50 ° C.,"4,564 ppm"
